Assay results taken from PubChem BioAssay (NCI).
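Interpolation was linear, between the two tested concentrations surrounding the appropriate level; five concentrations were tested over 48 hours in 96-well plates. Here, GI50 denotes the concentration required for 50% inhibition of growth. TGI marks complete inhibition of growth.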

Key:
Experiment in all cases: inhibition of tumour cell growth, NCI panel, 48 h
786-0 renal = test system: 786-0 renal
BT-549 breast = test system: BT-549 breast
CAKI-1 renal = test system: CAKI-1 renal
HOP-92 NSCLC = test system: HOP-92 NSCLC
NCI-H522 lung = test system: NCI-H522 lung
OVCAR-5 ovarian = test system: OVCAR-5 ovarian
OVCAR-8 ovarian = test system: OVCAR-8 ovarian
SF-268 CNS = test system: SF-268 CNS
SR leukemia = test system: SR leukemia
TK-10 renal = test system: TK-10 renal

Row | Structure (SMILES) | GI50 (786-0 renal) | TGI (786-0 renal) | GI50 (BT-549 breast) | TGI (BT-549 breast) | GI50 (CAKI-1 renal) | TGI (CAKI-1 renal) | GI50 (HOP-92 NSCLC) | TGI (HOP-92 NSCLC) | GI50 (NCI-H522 lung) | TGI (NCI-H522 lung) | GI50 (OVCAR-5 ovarian) | TGI (OVCAR-5 ovarian) | GI50 (OVCAR-8 ovarian) | TGI (OVCAR-8 ovarian) | GI50 (SF-268 CNS) | TGI (SF-268 CNS) | GI50 (SR leukemia) | TGI (SR leukemia) | GI50 (TK-10 renal) | TGI (TK-10 renal)
1 | c1cncc(C2Nc3cccc4cccc(c34)N2)c1 | > 100 µM | > 100 µM | 29.5 µM | 95 µM | 48.7 µM | > 100 µM | 22.3 µM | 61.2 µM | 14.6 µM | 35.1 µM | 88.7 µM | > 100 µM | 20 µM | 48.6 µM | 33.8 µM | > 100 µM | 27.5 µM | > 100 µM | 26.8 µM | 73.6 µM
2 | CC(=O)C1=C(C)N(C)C2(O)C=CC(=O)C3=C(O)c4ccccc4C(=O)C312 (stereo not given) | 2.59 µM | 7.36 µM | 13.6 µM | 27.9 µM | 3.52 µM | 9.65 µM | 2.61 µM | 8.48 µM | 23.8 µM | > 100 µM | 22.1 µM | 66.1 µM | 24 µM | > 100 µM | 9.29 µM | 23.6 µM | > 100 µM | > 100 µM | 6.72 µM | 20.7 µM
3 | C/C(=N\NC(=S)N1CCCCCCCCCCCC1)c1ccccn1 |  | 1.24 µM |  | 1.6 µM |  | 1.15 µM |  | 0.42 µM |  | 0.408 µM |  | 2.2 µM |  | 1.9 µM |  | 2.01 µM |  | 2.28 µM |  | 1.35 µM
4 | N#Cc1c(N)nc(N)nc1N[C@H](c1nc2c(F)ccc(Cl)c2c(=O)n1-c1cccnc1)C1CC1 | 0.363 µM | 14.5 µM | 0.761 µM | 17.3 µM | 1.69 µM | 26.9 µM | 0.549 µM | 7.59 µM | 34.2 µM | > 100 µM | 2.72 µM | 45.7 µM | 15.9 µM | 44.3 µM | 12.3 µM | > 100 µM | 13.4 µM | 52.5 µM | 1.92 µM | 15.6 µM
5 | Nc1nc(N)c2c(n1)NC(c1ccccc1)C1CCc3ccccc3C1=N2 (stereo not given) | 5.99 µM | 19.1 µM | 5.42 µM | 19.7 µM | 3.97 µM | 18.3 µM | 2.55 µM | 10.8 µM | 4.53 µM | 21.2 µM | 14.2 µM | 28 µM | 4.71 µM | 25.4 µM | 6.96 µM | 20 µM | 4.52 µM | > 100 µM | 3.01 µM | 14.8 µM
6 | Cc1[nH]c(-c2nc3ccccc3[nH]2)c(C)c1C(=O)NC(C)C1CCCCC1 (stereo not given) | 14.8 µM | 32.2 µM | 10.7 µM | 23.2 µM | 10.4 µM | 22.2 µM | 10.2 µM | 25.3 µM | 13.2 µM | 44 µM | 15 µM | 29.2 µM | 16.5 µM | 39.5 µM | 11.9 µM | 30.9 µM | 4.38 µM | 34.5 µM | 21.5 µM | 41.6 µM
